The values below are quoted from earlier work in publication PMC11258486, “Phase 1 dose escalation study of the MDM2 inhibitor milademetan as monotherapy and in combination with azacitidine in patients with myeloid malignancies” (Cancer Medicine, 2024).

One data set concerns AML. Set-up: method as in PMID 26459177. Particulars: phase 1 clinical study in AML; cited from earlier work.
The next data set relates to relapsed/refractory AML. Set-up: method as in PMID 35413116. The note with it: relapsed/refractory AML and wild‐type p53; cited from earlier work.

As to `CCOc1cc(C(C)(C)C)ccc1C1=N[C@@](C)(c2ccc(Cl)cc2)[C@@](C)(c2ccc(Cl)cc2)N1C(=O)N1CCN(CCCS(C)(=O)=O)CC1` [RG7112], the response rate in the data set on AML was ~ 25%.
Consider `Nc1ccn([C@@H]2O[C@H](CO)[C@@H](O)[C@@H]2O)c(=O)n1` [cytarabine], for which, in the data set with relapsed/refractory AML, the overall response rate is 22%.
